In patent publication US20080306116A1, “ARYLOXAZOLE, ARYLOXADIAZOLE AND BENZIMIDAZOLE DERIVATIVES” (priority 2007, published 2008):
pKi: −log10 of the molar value.

What follows are compounds tested against T1, human subtype 5 somatostatin receptor (Homo sapiens, UniProt P35346) (assay: radioligand replacement (binding) assay, membranes of CHO cells expressing human SSTR5, 125I-labeled 11-Tyr somatostatin-14 tracer). Settings: CHO cell membranes, 0.05 nM 125I-labeled 11-Tyr somatostatin-14, 1 h at rt; Ki calculated from IC50 by Cheng-Prussoff equation; read-out: hSSTR5 Ki.
T1 construct: host or cells: CHO cell line, stably transfected; membranes used
T1 sequence (P35346 whole entry): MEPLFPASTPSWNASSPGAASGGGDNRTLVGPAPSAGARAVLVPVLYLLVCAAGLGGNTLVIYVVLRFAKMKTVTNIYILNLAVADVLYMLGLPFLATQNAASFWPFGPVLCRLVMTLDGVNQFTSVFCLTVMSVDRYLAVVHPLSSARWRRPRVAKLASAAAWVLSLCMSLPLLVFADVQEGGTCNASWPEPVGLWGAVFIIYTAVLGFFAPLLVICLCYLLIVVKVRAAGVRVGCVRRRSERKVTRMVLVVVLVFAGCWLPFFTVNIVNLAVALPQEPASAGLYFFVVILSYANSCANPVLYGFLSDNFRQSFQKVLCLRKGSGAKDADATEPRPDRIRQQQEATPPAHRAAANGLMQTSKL
Procedure: A CHO cell line stably transfected with a plasmid encoding the human subtype 5 somatostatin receptor (GenBank accession number D16827) was obtained from Euroscreen. Cells were cultured and used for binding and functional assays.
Membranes of these cells were prepared by sonication in the presence of protease inhibitors and subsequent fractionating centrifugation. The protein concentration in the membrane preparation was determined using a commercial kit (BCA kit, Pierce, USA). Membranes were stored at −80° C. until use. After thawing membranes were diluted in assay buffer (50 mM Tris-HCl at pH 7.4, 5 mM MgCl2 and 0.20% BSA) and subjected to dounce homogenization.
For binding studies, 0.1 mL membrane suspension, corresponding to approximately 6×10^−15 mol receptor, was incubated for 1 h at rt with 0.05 nM ^125I-labeled tracer (11-Tyr somatostatin-14, Perkin-Elmer) and either test compound in varying concentrations or, for the determination of non-specific binding, 0.001 mM non-labeled somatostatin-14. The incubation was stopped by filtration through GF/B glassfiber filters and washing with ice-cold wash buffer (50 mM Tris-HCl at pH 7.4). The bound radioactivity was measured after application of a scintillation cocktail (Microscint 40) and expressed as disintegrations per minute (dpm).
The receptor concentration was determined in a prior saturation experiment where a fixed, arbitrary amount of membranes was incubated with a concentration range of radio-labeled tracer. This allows estimating the total number of specific binding sites per amount of protein (i.e., Bmax), typically between 1 and 5 pmol/mg.
The concentration of the test compound required to result in half maximal inhibition of binding of the radio-labeled tracer (IC50) was estimated from a concentration-versus-dpm graph. The binding affinity (Ki) was calculated from the IC50 by applying the Cheng-Prussoff equation for single binding sites.

SMILES	pKi
COc1ccc(CN2CCC(Nc3nc(-c4ccccc4)no3)CC2)cc1OCC(C)C [Example 5, [1-(3-Isobutoxy-4-methoxy-benzyl)piperidin-4-yl]-(3-phenyl-[1,2,4]oxadiazol-5-yl)-amine]	6.94
CCOc1cc(CN2CCC(Nc3nc(-c4ccccc4)no3)CC2)cc(OCC)c1N [Example 9, [1-(4-Amino-3,5-diethoxy-benzyl)-piperidin-4-yl]-(3-phenyl-[1,2,4]oxadiazol-5-yl)-amine]	7.39
CCOc1cc(CN2CCC(Nc3nc4ccccc4n3C)CC2)ccc1Cl [Example 11, [1-(4-Chloro-3-ethoxy-benzyl)-piperidin-4-yl]-(1-methyl-1H-benzoimidazol-2-yl)-amine]	7.38
CC(C)Oc1cc(CN2CCC(Nc3nc4ccccc4n3C)CC2)cc(OC(C)C)c1 [Example 13, [1-(3,5-Diisopropoxy-benzyl)-piperidin-4-yl]-(1-methyl-1H-benzoimidazol-2-yl)-amine]	7.46
CCOc1cc(CN2CCC(Nc3nc(-c4cccc(OC)c4)co3)CC2)cc(OCC)c1-c1ccc(F)cc1 [Example 15, [1-(2,6-Diethoxy-4′-fluoro-biphenyl-4-ylmethyl)-piperidin-4-yl]-[4-(3-methoxy-phenyl)-oxazol-2-yl]-amine]	7.32
CCOc1cc(CN2CCC(Nc3nc(-c4ccccc4)co3)CC2)cc(OCC)c1-c1ccc(F)cc1 [Example 24]	7.57
CCOc1cc(CN2CCC(Nc3ncc(-c4ccccc4)o3)CC2)cc(OCC)c1-c1ccc(F)cc1 [Example 33, [1-(2,6-Diethoxy-4′-fluoro-biphenyl-4-ylmethyl)-piperidin-4-yl]-(5-phenyl-oxazol-2-yl)-amine]	7.55
CCOc1cc(CN2CCC(Nc3ncc(-c4ccc(OC)cc4)o3)CC2)cc(OCC)c1-c1ccc(F)cc1 [Example 40, [1-(2,6-Diethoxy-4′-fluoro-bipehenyl-4-ylmethyl)-piperidin-4-yl]-[5-(4-methoxy-phenyl)-oxazol-2-yl]-amine]	7.34
CCOc1cc(CN2CCC(Nc3ncc(-c4ccccc4)o3)CC2)cc(OCC)c1C [Example 46, [1-(3,5-Diethoxy-4-methyl-benzyl)-piperidin-4-yl]-(5-phenyl-oxazol-2-yl)-amine]	7.92

Continued by rising pKi, values first:

pKi	SMILES
6.35	CCOc1cc(CN2CCC(Nc3nc(-c4ccccc4)no3)CC2)cc2c1OC(C)(C)C=C2 [Example 7, [1-(8-Ethoxy-2,2-dimethyl-2H-chromen-6-ylmethyl)-piperidin-4-yl]-(3-phenyl-[1,2,4]oxadiazol-5-yl)-amine]
7.04	CCOc1cc(CN2CCC(Nc3nc(-c4ccccc4)no3)CC2)ccc1Cl [Example 2, [1-(4-Chloro-3-ethoxy-benzyl)-piperidin-4-yl]-(3-phenyl-[1,2,4]oxadiazol-5-yl)-amine]
7.13	CCOc1cc(CN2CCC(Nc3nc(-c4ccccc4)no3)CC2)ccc1C [Example 1, [1-(3-Ethoxy-4-methyl-benzyl)-piperidin-4-yl]-(3-phenyl-[1,2,4]oxadiazol-5-yl)-amine]
7.14	CCOc1cc(CN2CCC(Nc3nc(-c4ccc(C(F)(F)F)cc4)co3)CC2)cc(OCC)c1-c1ccc(F)cc1 [Example 49]
7.59	CCOc1cc(CN2CCC(Nc3nc(-c4ccc(F)cc4)co3)CC2)cc(OCC)c1F [Example 19, [1-(3,5-Diethoxy-fluoro-benzyl)-piperidin-4yl]-[4-(4-fluoro-phenyl)-oxazol-2-yl]-amine]
7.92	CCOc1cc(CN2CCC(Nc3ncc(-c4ccccc4)o3)CC2)cc(OCC)c1Cl [Example 37, [1-(4-Chloro-3,5-diethoxy-benzyl)-piperidin-4-yl]-(5-phenyl-oxazol-2-yl)amine]
8.10	CCOc1cc(CN2CCC(Nc3nc(-c4ccc(Cl)cc4)co3)CC2)cc(OCC)c1Cl [Example 27, [1-(4-Chloro-3,5-diethoxy-benzyl)-piperidin-4-yl]-[4(4-chloro-phenyl)oxazol-2-yl]-amine]
